Read-outs that look alike come from different tables or passages of the source.
System: C. elegans
Experiment: microbe, parasite or virus in culture
Conditions: Caenorhabditis elegans
[1] = 0 h, read-out: Percentage of motility inhibition 0 h, Table S2, C. elegans SS assay, 110 μM, 0 h, averages of 4 data points
[2] = 24 h, read-out: Percentage of motility inhibition 24 h, Table S2, C. elegans SS assay, 110 μM, 24 h, averages of 4 data points
[3] = 0 h, read-out: Percentage of motility inhibition 0 h
[4] = 24 h, read-out: Percentage of motility inhibition 24 h

Row | Structure (SMILES) | inhibition at 110 µM [1] [%] | inhibition at 110 µM [2] [%] | inhibition at 110 µM [3] [%] | inhibition at 110 µM [4] [%]
1 | Cc1ccc2c(Cl)cc(Cl)c(O)c2n1 [Chlorquinaldol] | 19 | 38 | – | –
2 | C[C@@H]1O[C@@H](O[C@H]2[C@H](O)[C@@H](O)[C@H](OC[C@H]3O[C@@H](OC(=O)[C@]45CCC(C)(C)C[C@H]4C4=CC[C@@H]6[C@@]7(C)C[C@@H](O)[C@H](O)[C@@](C)(CO)[C@@H]7[C@H](O)C[C@@]6(C)[C@]4(C)CC5)[C@H](O)[C@@H](O)[C@@H]3O)O[C@@H]2CO)[C@H](O)[C@H](O)[C@H]1O [Asiaticoside B] | 0 | 5 | – | –
3 | CC1(C)CC[C@]2(C(=O)O)CC[C@]3(C)C(=CC[C@@H]4[C@@]5(C)CC[C@H](O)[C@@](C)(C=O)[C@@H]5CC[C@]43C)[C@@H]2C1 [Gypsogenin] | 10 | 10 | – | –
4 | C=C(CC[C@@H](C(=O)O)[C@H]1[C@H](O)C[C@@]2(C)C3=CC[C@H]4C(C)(C)[C@@H](O)CC[C@]4(C)C3=CC[C@]12C)C(C)C [Dehydrotumulosic acid] | 11 | 21 | – | –
5 | COc1ccc(-c2cc(=O)c3c(O)cc(O)c(-c4cc(-c5cc(=O)c6c(O)cc(O)cc6o5)ccc4OC)c3o2)cc1 [Isoginkgetin] | 17 | 19 | – | –
6 | CN1[C@@H]2CC[C@H]1C[C@@H](OC(=O)[C@H](CO)c1ccccc1)C2 [L‐Hyoscyamine] | – | – | 16 | 12
7 | C/C=C(\C)C(=O)O[C@H]1C[C@@H](OC(C)=O)[C@@]2(C(=O)OC)CO[C@H]3[C@@H](O)[C@@](C)([C@]45O[C@@]4(C)[C@H]4C[C@@H]5O[C@@H]5OC=C[C@@]54O)[C@H]4[C@]1(CO[C@]4(O)C(=O)OC)[C@@H]32 [Azadirachtin] | 24 | 4 | – | –
8 | C=C(C)[C@@H]1CC=C2C(=CC[C@]3(C)[C@@H]([C@@H](CCC=C(C)C)C(=O)O)[C@H](O)C[C@@]23C)[C@@]1(C)CCC(=O)O [Poricoic acid B] | 14 | 0 | – | –
9 | CC(C)=CCC[C@](C)(O)[C@H]1CC[C@]2(C)[C@@H]1[C@H](O)C[C@@H]1[C@@]3(C)CC[C@H](O)C(C)(C)[C@@H]3[C@@H](O[C@@H]3O[C@H](CO)[C@@H](O)[C@H](O)[C@H]3O)C[C@]12C [Ginsenoside Rh1] | 0 | 9 | – | –
10 | C=C(NC(=O)C(=C)NC(=O)c1csc(C2=N[C@@H]3c4csc(n4)[C@H]4NC(=O)c5csc(n5)[C@H]([C@](C)(O)[C@@H](C)O)NC(=O)[C@H]5CSC(=N5)/C(=C/C)NC(=O)[C@H]([C@@H](C)O)NC(=O)c5csc(n5)[C@]3(CC2)NC(=O)[C@H](C)NC(=O)C(=C)NC(=O)[C@H](C)NC(=O)[C@H]([C@@H](C)CC)N[C@@H]2C=Cc3c([C@H](C)O)cc(nc3[C@H]2O)C(=O)O[C@@H]4C)n1)C(N)=O [Thiostrepton] | 11 | 31 | – | –
11 | CC(C)(C)[C@H]1CC[C@H](CC2=C(O)C(=O)c3ccccc3C2=O)CC1 [Buparvaquone] | 6 | 12 | – | –
12 | CCCCC[C@H](O)CC(=O)CCc1ccc(O)c(OC)c1 [[6]‐Gingerol] | 1 | 10 | – | –
13 | CCOC(=O)CCC(=O)O[C@H]1[C@H](O[C@@H]2[C@@H](C)[C@H](O[C@H]3C[C@@](C)(OC)[C@@H](O)[C@H](C)O3)[C@@H](C)C(=O)O[C@H](CC)[C@@](C)(O)[C@H](O)[C@@H](C)C(=O)[C@H](C)C[C@@]2(C)O)O[C@H](C)C[C@@H]1N(C)C [Erythromycin Ethylsuccinate] | 24 | 7 | – | –
14 | N=C(N)NCCC[C@H](N)C(=O)O [L-Arginine] | – | – | 0 | 0
15 | C[C@@H]1CC[C@H]2C(C)(C)[C@H]3C[C@@]12CC[C@@]3(C)O [Cedrol] | 8 | 13 | – | –
16 | Cc1nccc2c1[nH]c1ccccc12 [Harmane] | 0 | 6 | – | –
17 | C=C1C/C(=C/C)C(=O)O[C@@H]2CCN3CC=C(COC(=O)[C@]1(C)O)[C@H]23 [Seneciphylline] | 0 | 1 | – | –

Row | Structure (SMILES) | inhibition at 110 µM [1] [%] | inhibition at 110 µM [2] [%] | inhibition at 110 µM [3] [%] | inhibition at 110 µM [4] [%]
18 | OC[C@H]1O[C@@H](Oc2ccc3c(c2)OC[C@H]2c4cc5c(cc4O[C@@H]32)OCO5)[C@H](O)[C@@H](O)[C@@H]1O [Trifolirhizin] | 11 | 0 | – | –
19 | CC(=O)OCC(CCn1cnc2cnc(N)nc21)COC(C)=O [Famciclovir] | 15 | 2 | – | –
20 | C=C1[C@H]2C[C@@]3([C@@H]1O)[C@@H](CC2=O)[C@]12[C@@H]4C[C@H]3[C@H]1N(CC)C[C@]4(C)CC[C@@H]2O [Songorine] | – | – | 5 | 9
21 | CC[C@]12CCCN3CCc4c(n(c5ccccc45)C(=O)C1)[C@@H]32 [Vinburnine] | 0 | – | – | –
22 | NC[C@H]1O[C@H](O[C@H]2[C@H](O)[C@@H](O[C@H]3O[C@H](CO)[C@@H](O)[C@H](N)[C@H]3O)[C@H](N)C[C@@H]2N)[C@H](N)[C@@H](O)[C@@H]1O [Bekanamycin] | 23 | 10 | – | –
23 | CC[C@H]1OC(=O)[C@H](C)[C@@H](O[C@H]2C[C@@](C)(OC)[C@@H](O)[C@H](C)O2)[C@H](C)[C@@H](O[C@@H]2O[C@H](C)C[C@H](N(C)C)[C@H]2O)[C@](C)(O)C[C@@H](C)[C@@H]2N[C@@H](COCCOC)O[C@H]([C@H]2C)[C@]1(C)O [Dirithromycin] | 3 | 0 | – | –
24 | O=c1c(O[C@@H]2O[C@@H](CO)[C@H](O)[C@H]2O)c(-c2ccc(O)c(O)c2)oc2cc(O)cc(O)c12 [Avicularin] | 33 | 21 | – | –
25 | Cc1cn([C@@H]2C[C@@H](O)[C@H](CO)O2)c(=O)[nH]c1=O [Telbivudine] | 39 | 1 | – | –
26 | CC(C)=CCc1cc([C@@H]2CC(=O)c3ccc(O)c(CC=C(C)C)c3O2)ccc1O [Glabrol] | 11 | 9 | – | –
27 | CC(C)[C@H](N)C(=O)O [L-Valine] | 0 | 12 | – | –
28 | CCCCC1C(=O)N(c2ccccc2)N(c2ccc(O)cc2)C1=O (centres unmarked) [Oxyphenbutazone] | 0 | 0 | – | –
29 | C=C[C@@H]1C2=CCOC(=O)C2=CO[C@H]1O[C@@H]1O[C@H](CO)[C@@H](O)[C@H](O)[C@H]1O [Gentiopicroside] | 0 | 19 | – | –
30 | CC[C@H]1OC(=O)C[C@@H](O)[C@H](C)[C@@H](O[C@@H]2O[C@H](C)[C@@H](O[C@H]3C[C@@](C)(O)[C@@H](O)[C@H](C)O3)[C@H](N(C)C)[C@H]2O)[C@@H](CC=O)C[C@@H](C)C(=O)/C=C/C(C)=C/[C@@H]1CO[C@@H]1O[C@H](C)[C@@H](O)[C@@H](OC)[C@H]1OC [Tylosin] | 22 | 0 | – | –
31 | COc1c(-c2ccc(O)c(O)c2)oc2cc(O)cc(O)c2c1=O [3‐O‐Methylquercetin] | 3 | 16 | – | –
32 | Nc1nc2c(nc(O)n2[C@@H]2O[C@H](CO)[C@@H](O)[C@H]2O)c(=O)[nH]1 [8‐Hydroxyguanosine] | 14 | 4 | – | –
33 | O=c1cc(-c2ccc(O)cc2)oc2cc(O[C@@H]3O[C@H](CO)[C@@H](O)[C@H](O)[C@H]3O[C@@H]3OC[C@](O)(CO)[C@H]3O)cc(O)c12 [Apiin] | 24 | 0 | – | –
